Tested on: at least one muscarinic receptor, M1, M2, M3, M4
Experiment: Muscarinic modulation activity (Table 3)
Assay type: cell-based
Set-up: key: +++: exhibited muscarinic modulation activity for at least one muscarinic receptor, M1, M2, M3, M4, at a concentration of less than 5 μM; ++: exhibited muscarinic modulation activity for at least one muscarinic receptor, M1, M2, M3, M4, at a concentration of between 30 μM and 5 μM; +: exhibited muscarinic modulation activity for at least one muscarinic receptor, M1, M2, M3, M4, at a concentration of greater than 30 μM; −: were not assayed or did not exhibit muscarinic modulation activity for at least one muscarinic receptor, M1, M2, M3, M4, at the concentration at which the assay was performed
Conditions: concentration at which modulation of at least one muscarinic receptor, M1, M2, M3, M4, was exhibited; CHO cells
Description: CHO cells expressing muscarinic receptors (M1 to M5) are grown as monolayers in tissue culture flasks at 37° C. in a humidified atmosphere containing 5% CO2 and passaged every 3-5 days. The growth media is Dulbecco's modified eagles medium (DMEM, Gibco Cat#12430-054), containing 25 mM Hepes and supplemented with Fetal Bovine Serum (Hyclone, cat#SH30071.03), 0.1 mM of MEM non-essential amino acids (GIBCO, Cat#11140-050), 1 mM MEM Sodium Pyruvate (GIBCO Cat#11360-070) and 100 units/ml of Penicillin G and 100 μg/ml of Streptomycin (GIBCO Cat#15140-122). The recombinant muscarinic receptor cell lines are grown under antibiotic pressure with media containing 25 μg/ml zeocin and 500 μg/ml G418 (M1-CHO), 4 μg/ml puromycin, 50 μg/ml zeocin and 2.5 μg/ml blasticidin (M2 and M4-CHO) or 50 μg/ml zeocin and 4 μg/ml puromycin (M3 and M5-CHO).
Cells are harvested at 80-90% confluence using Versene (GIBCO Cat#15040-066), collected by centrifugation and seeded 18-24 hrs prior to running the calcium assay at a density of 5,000-10,000 cells/well in […], clear-bottomed 384-well plates (BD Biocoat, poly-D-lysine, Cat#356663). The day of the experiment, the cells are washed with a plate washer (Bioteck Instruments, ELX 405) using bath1 buffer (140-mM NaCl, 4.5-mM KCl, 2-mM CaCl2, 1-mM MgCl2, 10-mM Hepes-Na, 10-mM Glucose, pH 7.4, with NaOH) containing 1 mM Probenecid. Next, the calcium dye Fluo-3 (25 μl/well of Fluo-3 AM at 4 μM, Molecular Probes F-1241, in Bath 1 buffer containing 1 mM Probenecid) is added to the 25 μl of Bath 1 remaining in each well after the plate wash and the dye is loaded at 37° C. in the tissue culture incubator for 60-90 min. The fluorescent dye is removed using the plate washer with Bath 1 containing 1 mM Probenecid, leaving 25 μl/well of this solution after the wash. Alternatively, cells can be loaded with the calcium indicator from Molecular Devices (Calcium 3 Assay Reagents, Cat #R7181) adding 5 μl of a 5× solution dye in Bath 1 containing 1 mM Probenecid (10 ml per dye flask cat#R7182 to generate a solution […]) to 20 μl of the same buffer. After loading for 60 min. the experiment can be run without having to remove the dye.
Compounds are prepared at a 2× fold concentration in a 96-well plate (round bottom, Costar Corning cat#3656), by reconstituting the pre-spotted compounds in bath 1 containing 1 mM probenecid. The final concentration DMSO is 0.5%, and the amount of DMSO is normalized across the assay plate. To determine an agonist action of the compounds on muscarinic receptors, the reconstituted compounds are added (25 μl compound/well) to the cell assay plate (containing 25 μl/well) using the multi-channel robotic system of the FLIPR 3 Instrument (Molecular Devices, Sunnyvale, Calif.). To determine a functional inhibitory action of the compounds on muscarinic receptors, the reconstituted compounds are added (25 μl compound/well) to the assay plate and pre-incubated for 15 min prior to adding 25 μl of Carbachol at 3× the EC80 for each muscarinic subtype. Alternatively, the compounds can be co-applied simultaneously with the agonist. In both assay modes, the fluorescence is recorded for 60 sec (excitation wavelength is […] and emission wavelength 540 nm) using the FLIPR 3 instrument.
The potency, efficacy and selectivity of the muscarinic compounds were evaluated by screening the compound activity across the whole family (M1 to M5 cells).
CHO cells expressing muscarinic receptors (M1 to M5) and containing a gene reporter system β-Lactamase) with transcriptional control mediated by calcium release (NFAT activation). See Zlokarnik, G; Negulescu, P. A.; Knapp, T. E.; Mere, L; Burres, N; Feng, L; Whitney, M; Roemer, K; Tsien, R. Y. Quantitation of transcription and clonal selection of single living cells with β-lactamase as reporter. Science, 1998 Jan. 2, 279(5347):84-8. The cells are grown as monolayers in tissue culture flasks at 37° C. in a humidified atmosphere containing 5% CO2 and passaged every 3-5 days. […]

Compound	ACTIVITY (muscarinic modulation activity)
c1cc(N2CCN(C3CC4CCC(C4)C3)CC2)ccn1 (centres unmarked) [Compound 35, 1-(3-bicyclo[3.2.1]octyl)-4-(4-pyridyl)piperazine]	++ (exhibited muscarinic modulation activity for at least one muscarinic receptor, M1, M2, M3, M4, at a concentration of between 30 μM and 5 μM)
N#Cc1ccc(N2CCN(C3CC4CCC3C4)CC2)nc1 (centres unmarked) [Compound 19, 6-(4-norbornan-2-ylpiperazin-1-yl)nicotinonitrile]	++ (exhibited muscarinic modulation activity for at least one muscarinic receptor, M1, M2, M3, M4, at a concentration of between 30 μM and 5 μM)
Cc1nccnc1N1CCN(C2CC3CCC2C3)CC1 (centres unmarked) [Compound 63, 2-methyl-3-(4-norbornan-2-ylpiperazin-1-yl)-pyrazine]	+ (exhibited muscarinic modulation activity for at least one muscarinic receptor, M1, M2, M3, M4, at a concentration of greater than 30 μM)
CCOC(=O)N1C2CCC1CC(N1CCN(c3ncccc3F)CC1)C2 (centres unmarked) [Compound 30, 3-[4-(3-fluoro-2-pyridyl)piperazin-1-yl]-8-azabicyclo[3.2.1]octane-8-carboxylic acid ethyl ester]	+++ (exhibited muscarinic modulation activity for at least one muscarinic receptor, M1, M2, M3, M4, at a concentration of less than 5 μM)
CCOC(=O)N1C2CCC1CC(N1CCN(c3ccc(C#N)cn3)CC1)C2 (centres unmarked) [Compound 66, 3-[4-(5-cyano-2-pyridyl)piperazin-1-yl]-8-azabicyclo[3.2.1]octane-8-carboxylic acid ethyl ester]	+++ (exhibited muscarinic modulation activity for at least one muscarinic receptor, M1, M2, M3, M4, at a concentration of less than 5 μM)
C1=CC2CC1CC2CN1CCC(n2nnc3ccccc32)CC1 (centres unmarked) [Compound 37, 1-[1-(5-bicyclo[2.2.1]hept-2-enylmethyl)-4-piperidyl]-1H-benzotriazole]	+ (exhibited muscarinic modulation activity for at least one muscarinic receptor, M1, M2, M3, M4, at a concentration of greater than 30 μM)
Clc1cccnc1N1CCN(C2CC3CCC2C3)CC1 (centres unmarked) [Compound 7, 1-(3-chloro-2-pyridyl)-4-norbornan-2-yl-piperazine]	+++ (exhibited muscarinic modulation activity for at least one muscarinic receptor, M1, M2, M3, M4, at a concentration of less than 5 μM)
Cc1cnc(C)c(N2CCN(C3CC4CCC3C4)CC2)n1 (centres unmarked) [Compound 40, 2,5-dimethyl-3-(4-norbornan-2-ylpiperazin-1-yl)-pyrazine]	−
CCOC(=O)N1C2CCC1CC(N1CCN(c3nc(C(F)(F)F)ccc3C#N)CC1)C2 (centres unmarked) [Compound 24, 3-[4-[3-cyano-6-(trifluoromethyl)-2-pyridyl]piperazin-1-yl]-8-azabicyclo[3.2.1]octane-8-carboxylic acid ethyl ester]	+++ (exhibited muscarinic modulation activity for at least one muscarinic receptor, M1, M2, M3, M4, at a concentration of less than 5 μM)
N#Cc1cc(-c2ccccc2)nnc1N1CCN(CC2CC3CCC2C3)CC1 (centres unmarked) [Compound 59, 3-[4-(norbornan-2-ylmethyl)piperazin-1-yl]-6-phenyl-pyridazine-4-carbonitrile]	+ (exhibited muscarinic modulation activity for at least one muscarinic receptor, M1, M2, M3, M4, at a concentration of greater than 30 μM)
Cc1ccc(C#N)c(N2CCN(CC3CC4C=CC3C4)CC2)n1 (centres unmarked) [Compound 62, 2-[4-(5-bicyclo[2.2.1]hept-2-enylmethyl)piperazin-1-yl]-6-methyl-nicotinonitrile]	+++ (exhibited muscarinic modulation activity for at least one muscarinic receptor, M1, M2, M3, M4, at a concentration of less than 5 μM)
Cc1ccc(C#N)c(N2CCN(C3CC4CCC3C4)CC2)n1 (centres unmarked) [Compound 31, 6-methyl-2-(4-norbornan-2-ylpiperazin-1-yl)-nicotinonitrile]	++ (exhibited muscarinic modulation activity for at least one muscarinic receptor, M1, M2, M3, M4, at a concentration of between 30 μM and 5 μM)
c1ccc(N2CCN(C3CC4CCC3C4)CC2)nc1 (centres unmarked) [Compound 65, 1-norbornan-2-yl-4-(2-pyridyl)piperazine]	++ (exhibited muscarinic modulation activity for at least one muscarinic receptor, M1, M2, M3, M4, at a concentration of between 30 μM and 5 μM)
C1=CC2CC1CC2CN1CCN(c2ccccn2)CC1 (centres unmarked) [Compound 48, 1-(5-bicyclo[2.2.1]hept-2-enylmethyl)-4-(2-pyridyl)piperazine]	++ (exhibited muscarinic modulation activity for at least one muscarinic receptor, M1, M2, M3, M4, at a concentration of between 30 μM and 5 μM)
Cc1cccc(N2CCN(CC3CC4C=CC3C4)CC2)n1 (centres unmarked) [Compound 15, 1-(5-bicyclo[2.2.1]hept-2-enylmethyl)-4-(6-methyl-2-pyridyl)-piperazine]	++ (exhibited muscarinic modulation activity for at least one muscarinic receptor, M1, M2, M3, M4, at a concentration of between 30 μM and 5 μM)
N#Cc1ccc(C(F)(F)F)nc1N1CCN(C2CC3CCC2C3)CC1 (centres unmarked) [Compound 3, 2-(4-norbornan-2-ylpiperazin-1-yl)-6-(trifluoromethyl)nicotinonitrile]	+ (exhibited muscarinic modulation activity for at least one muscarinic receptor, M1, M2, M3, M4, at a concentration of greater than 30 μM)
CCOC(=O)N1C2CCC1CC(N1CCN(c3nnc(-c4ccccc4)cc3C#N)CC1)C2 (centres unmarked) [Compound 11, 3-[4-(4-cyano-6-phenyl-pyridazin-3-yl)piperazin-1-yl]-8-azabicyclo[3.2.1]octane-8-carboxylic acid ethyl ester]	+ (exhibited muscarinic modulation activity for at least one muscarinic receptor, M1, M2, M3, M4, at a concentration of greater than 30 μM)
3-[4-(3-cyanopyrazin-2-yl)piperazin-1-yl]-8-azabicyclo[3.2.1]octane-8-carboxylic acid ethyl ester [Compound 45]	+ (exhibited muscarinic modulation activity for at least one muscarinic receptor, M1, M2, M3, M4, at a concentration of greater than 30 μM)
Cc1nccnc1N1CCN(CC2CC3C=CC2C3)CC1 (centres unmarked) [Compound 17, 2-[4-(5-bicyclo[2.2.1]hept-2-enylmethyl)piperazin-1-yl]-3-methyl-pyrazine]	+++ (exhibited muscarinic modulation activity for at least one muscarinic receptor, M1, M2, M3, M4, at a concentration of less than 5 μM)
CCOC(=O)N1C2CCC1CC(N1CCC(n3nnc4ccccc43)CC1)C2 (centres unmarked) [Compound 29, 3-[4-(1H-benzotriazol-1-yl)-1-piperidyl]-8-azabicyclo[3.2.1]octane-8-carboxylic acid ethyl ester]	+++ (exhibited muscarinic modulation activity for at least one muscarinic receptor, M1, M2, M3, M4, at a concentration of less than 5 μM)
